Results taken from publication PMC10178204, “Peptaibol Analogs Show Potent Antibacterial Activity against Multidrug Resistant Opportunistic Pathogens” (International Journal of Molecular Sciences, 2023).
Converted amounts (≈) assume the structure as drawn. “And” between values parts separate entries of the source, which are not always exact repeats. Identical values can stand only once. Non-standard residues stand in square brackets, D forms with d. Residues, ends and D or L forms follow the SMILES beside them. *: point of attachment. Leu(ol) = CC(C)C[C@H](N)CO; Octanoyl = CCCCCCCC(=O)*; Aib = CC(C)(N)C(=O)O

Legend:
[1] = system: blood agar plate (Columbia CNA Agar); assay: Hemolysis on blood agar plate; conditions: 50 μg spotted on blood agar, 35 ± 2 °C, 24 h
Procedure, shortened: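 Peptides (50 μg, from 25 mg/mL DMSO solution) spotted on Columbia CNA blood agar, incubated at 35 ± 2 °C for 24 h. Hemolysis zone diameter measured visually, averaged over triplicates. Triton X-100 positive, DMSO negative control.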

[2] = system: P. aeruginosa VA-182/00 (VIM-2); conditions: MHB, 5 × 10^5 CFU/mL, 18 h, 35 °C, triplicate
Protocol: (§1) The minimum inhibitory concentration (MIC) and the minimum bactericidal concentration (MBC) of the compounds were determined in triplicate using Mueller–Hinton broth (MHB). […] Therefore, we decided to dissolve all peptides in DMSO to a final concentration of 25 mg/mL, for consistency. The bacteria inoculum was 5 × 10^5 CFU/mL, as recommended by CLSI (Document M07-A10, 2015). […] Reference-type strains, including representatives of both Gram-positive bacteria (Bacillus subtilis ATCC 6633, Enterococcus faecalis ATCC 29212, Staphylococcus aureus ATCC 25923, the methicillin-resistant Staphylococcus aureus ATCC 43300 (MRSA), Streptococcus pyogenes ATCC 12344) and Gram-negative bacteria (Escherichia coli CCUGT, Klebsiella pneumoniae ATCC 13833, Pseudomonas aeruginosa ATCC 27853, and Acinetobacter baumannii ATCC 17978), were acquired from ATCC or CCUG culture collections. Other antibiotic-resistant clinical isolates were present in our collection at the University Teaching Hospital (Azienda Ospedaliero-Universitaria Senese ‘Santa Maria alle Scotte’) in Siena, Tuscany, Italy. Specifically, MDR carbapenem-hydrolyzing class D β-lactamase-producing Acinetobacter baumannii and metallo-β-lactamase-producing Pseudomonas aeruginosa were used in this study (Table 4).

[3] = system: A. baumannii SI-648 (OXA-23, OXA-51-like); conditions: MHB, 5 × 10^5 CFU/mL, 18 h, 35 °C, triplicate
Protocol: as §1

[4] = system: A. baumannii SI-310 (OXA-24); conditions: colistin-resistant isolate; MHB, 5 × 10^5 CFU/mL, 18 h, 35 °C, triplicate
Protocol: as §1

[5] = system: P. aeruginosa 506/99 (VIM-2); conditions: MHB, 5 × 10^5 CFU/mL, 18 h, 35 °C, triplicate
Protocol: as §1

[6] = system: P. aeruginosa 101/1477 (IMP-1); conditions: MHB, 5 × 10^5 CFU/mL, 18 h, 35 °C, triplicate
Protocol: as §1

[7] = system: A. baumannii SI-12 (OXA-23); conditions: MHB, 5 × 10^5 CFU/mL, 18 h, 35 °C, triplicate
Protocol: as §1

[8] = system: P. aeruginosa VR-143/97 (VIM-1); conditions: MHB, 5 × 10^5 CFU/mL, 18 h, 35 °C, triplicate
Protocol: as §1

[9] = system: S. aureus ATCC 43300 (MRSA); conditions: MHB, 5 × 10^5 CFU/mL, 18 h, 35 °C, triplicate
Protocol: as §1

[10] = system: Streptococcus pyogenes ATCC 12344; conditions: MHB, 5 × 10^5 CFU/mL, 18 h, 35 °C, triplicate
Procedure, shortened: (§2)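 Broth microdilution in Mueller–Hinton broth, run in triplicate, inoculum 5 × 10^5 CFU/mL per CLSI M07-A10; MIC and MBC both determined. Peptides dissolved in DMSO at 25 mg/mL as stock.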

[11] = system: Staphylococcus aureus ATCC 25923; conditions: MHB, 5 × 10^5 CFU/mL, 18 h, 35 °C, triplicate
Procedure, shortened: as §2

[12] = system: Acinetobacter baumannii ATCC 17978; conditions: for MBC Aba / MIC Aba: MHB, 5 × 10^5 CFU/mL, 18 h, 35 °C, triplicate; for MIC against A. baumannii, in molar units: corresponding to 2 and 8 μg/mL
Procedure, shortened: as §2

Escherichia coli CCUGT = conditions: MHB, 5 × 10^5 CFU/mL, 18 h, 35 °C, triplicate
Procedure, shortened: as §2

[13] = system: reference Gram-positive and Gram-negative strains; conditions: for lowest MIC: lowest value over the eight reference strains
Procedure, shortened: as §2

[14] = system: Enterococcus faecalis ATCC 29212; conditions: MHB, 5 × 10^5 CFU/mL, 18 h, 35 °C, triplicate
Procedure, shortened: as §2

[15] = system: Bacillus subtilis ATCC 6633; conditions: MHB, 5 × 10^5 CFU/mL, 18 h, 35 °C, triplicate
Procedure, shortened: as §2

[16] = system: Pseudomonas aeruginosa ATCC 27853; conditions: MHB, 5 × 10^5 CFU/mL, 18 h, 35 °C, triplicate
Procedure, shortened: as §2

[17] = system: Klebsiella pneumoniae ATCC 13833; conditions: MHB, 5 × 10^5 CFU/mL, 18 h, 35 °C, triplicate
Procedure, shortened: as §2

Row | SMILES | Hemolytic activity (in words) [1] | MBC P. aeruginosa VA-182/00 (VIM-2) [2] | MIC P. aeruginosa VA-182/00 (VIM-2) [2] | MBC A. baumannii SI-648 (OXA-23, OXA-51-like) [3] | MIC A. baumannii SI-648 (OXA-23, OXA-51-like) [3] | MBC A. baumannii SI-310 (OXA-24) [4] | MIC A. baumannii SI-310 (OXA-24) [4] | MBC P. aeruginosa 506/99 (VIM-2) [5] | MIC P. aeruginosa 506/99 (VIM-2) [5] | MBC P. aeruginosa 101/1477 (IMP-1) [6] | MIC P. aeruginosa 101/1477 (IMP-1) [6] | MBC A. baumannii SI-12 (OXA-23) [7] | MIC A. baumannii SI-12 (OXA-23) [7] | MBC P. aeruginosa VR-143/97 (VIM-1) [8] | MIC P. aeruginosa VR-143/97 (VIM-1) [8] | MBC S. aureus ATCC 43300 (MRSA) [9] | MIC S. aureus ATCC 43300 (MRSA) [9] | MBC Spy [10] | MIC Spy [10] | MBC Sau [11] | further results
1 | CCCCCCCC(=O)NC(C)(C)C(=O)NCC(=O)N[C@@H](CC(C)C)C(=O)NC(C)(C)C(=O)N[C@@H](CCCCN)C(=O)N[C@@H](CCCCN)C(=O)N[C@@H](CC(C)C)C(=O)NC(C)(C)C(=O)NCC(=O)N[C@H](C(=O)N[C@H](CO)CC(C)C)[C@@H](C)CC [Peptide 4, 1-Oct-Aib-Gly-Leu-Aib-Lys-Lys-Leu-Aib-Gly-Ile-Lol] | non-hemolytic | 32 mg/L (≈ 26.5 µM) | 16 mg/L (≈ 13.2 µM) | 4 mg/L (≈ 3.31 µM) | 4 μg/mL and 4/4 μg/mL | 8 mg/L (≈ 6.62 µM) | 4 µg/mL (≈ 3.31 µM) | 16 mg/L (≈ 13.2 µM) | 16 mg/L (≈ 13.2 µM) | 16 mg/L (≈ 13.2 µM) | 8 mg/L (≈ 6.62 µM) | 4 mg/L (≈ 3.31 µM) | 2 mg/L (≈ 1.65 µM) | 32 mg/L (≈ 26.5 µM) | 16 mg/L (≈ 13.2 µM) | 8 mg/L (≈ 6.62 µM) | 4 mg/L (≈ 3.31 µM) | 2 mg/L (≈ 1.65 µM) | 2 mg/L (≈ 1.65 µM) | 16 mg/L (≈ 13.2 µM) | MIC Sau [11]: 16 mg/L (≈ 13.2 µM); MBC Aba [12]: 2 mg/L (≈ 1.65 µM); MIC Aba [12]: 2 mg/L (≈ 1.65 µM); MIC against A. baumannii, in molar units [12]: 1.8 to 7.2 µM; MBC Eco (Escherichia coli CCUGT): > 16 mg/L; MIC Eco (Escherichia coli CCUGT): 16 mg/L (≈ 13.2 µM); lowest MIC [13]: 2 mg/L; MBC Efa [14]: 8 mg/L and 4 mg/L; MIC Efa [14]: 2 mg/L (≈ 1.65 µM); MIC Bsu [15]: 2 mg/L (≈ 1.65 µM); MBC Pae [16]: 16 mg/L (≈ 13.2 µM); MIC Pae [16]: 8 mg/L (≈ 6.62 µM); MBC Kpn [17]: 32 mg/L (≈ 26.5 µM); MIC Kpn [17]: 16 mg/L (≈ 13.2 µM)
2 | CCCCCCCC(=O)NC(C)(C)C(=O)N[C@@H](CCCCN)C(=O)N[C@@H](CC(C)C)C(=O)NC(C)(C)C(=O)N[C@@H](CCCCN)C(=O)N[C@@H](CCCCN)C(=O)N[C@@H](CC(C)C)C(=O)NC(C)(C)C(=O)N[C@@H](CCCCN)C(=O)N[C@H](C(=O)N[C@H](CO)CC(C)C)[C@@H](C)CC [Peptide 7, 1-Oct-Aib-Lys-Leu-Aib-Lys-Lys-Leu-Aib-Lys-Ile-Lol] (Octanoyl-[Aib]KL[Aib]KKL[Aib]KI[Leu(ol)]) | non-hemolytic | 8 mg/L (≈ 5.92 µM) | 8 mg/L (≈ 5.92 µM) | 4 mg/L (≈ 2.96 µM) | 2 µg/mL (≈ 1.48 µM) | 4 mg/L (≈ 2.96 µM) | 4 μg/mL and 4/4 μg/mL | 8 mg/L (≈ 5.92 µM) | 8 mg/L (≈ 5.92 µM) | 8 mg/L (≈ 5.92 µM) | 8 mg/L (≈ 5.92 µM) | 4 mg/L (≈ 2.96 µM) | 2 mg/L (≈ 1.48 µM) | 8 mg/L (≈ 5.92 µM) | 8 mg/L (≈ 5.92 µM) | 8 mg/L (≈ 5.92 µM) | 4 mg/L (≈ 2.96 µM) | 8 mg/L (≈ 5.92 µM) | 2 mg/L (≈ 1.48 µM) | 32 mg/L (≈ 23.7 µM) | MIC Sau [11]: 16 mg/L (≈ 11.8 µM); MBC Aba [12]: 16 mg/L (≈ 11.8 µM); MIC Aba [12]: 2 mg/L (≈ 1.48 µM); MIC against A. baumannii, in molar units [12]: 1.8 to 7.2 µM; MBC Eco (Escherichia coli CCUGT): 16 mg/L (≈ 11.8 µM); MIC Eco (Escherichia coli CCUGT): 16 mg/L (≈ 11.8 µM); lowest MIC [13]: 2 mg/L; MIC range, all tested bacterial strains ([13]; reference panel): 2 to 16 mg/L; MBC Efa [14]: 8 mg/L (≈ 5.92 µM); MIC Efa [14]: 4 mg/L (≈ 2.96 µM); MBC Bsu [15]: 16 mg/L (≈ 11.8 µM); MIC Bsu [15]: 2 mg/L (≈ 1.48 µM); MBC Pae [16]: > 16 mg/L; MIC Pae [16]: 8 mg/L (≈ 5.92 µM); MBC Kpn [17]: 16 mg/L (≈ 11.8 µM); MIC Kpn [17]: 16 mg/L (≈ 11.8 µM)
